Data published in US10227331B2 (priority 2015, dated 2019).

Key:
IMP-1 = IMP-1 (Serratia marcescens, UniProt P52699); test: biochemical; assay type: biochemical; settings: CCF2-FA substrate, 2 hours at 25° C; read-out: IMP-1 IC50
Method in brief: (§1)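 Class B activity is measured in the presence of compound by fluorescence with CCF2-FA after a 2-hour incubation at 25° C. IC50 is taken from a 4-parameter fit of semi-logarithmic dose-response data.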

NDM-1 = NDM-1 (Klebsiella pneumoniae, UniProt C7C422); test: biochemical; assay type: biochemical; settings: CCF2-FA substrate, 2 hours at 25° C; read-out: NDM-1 IC50
Sequence of NDM-1 (C7C422 whole entry, looked up, species assumed): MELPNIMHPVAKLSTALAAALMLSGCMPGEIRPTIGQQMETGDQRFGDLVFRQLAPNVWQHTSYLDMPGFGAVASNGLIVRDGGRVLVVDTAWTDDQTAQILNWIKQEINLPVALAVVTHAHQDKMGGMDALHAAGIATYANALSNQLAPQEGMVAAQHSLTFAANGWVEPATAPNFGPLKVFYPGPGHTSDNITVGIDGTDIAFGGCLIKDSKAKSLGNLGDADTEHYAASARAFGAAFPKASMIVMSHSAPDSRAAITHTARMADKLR
Method in brief: as §1

VIM-1 = VIM-1 (Pseudomonas aeruginosa (strain ATCC 15692 / DSM 22644 / CIP 104116 / JCM 14847 / LMG 12228 / 1C / PRS 101 / PAO1), UniProt A0A0F7KYQ8); test: biochemical; settings: CCF2-FA substrate, 2 hours at 25° C
Method in brief: as §1

[1] = system: Escherichia coli expressing NDM-1 (CLB30005, CLB30016); assay type: cell-based; settings: with imipenem 1 μg/ml, 95% inhibition of bacterial growth; for Escherichia coli MITC95: NDM-1 (CLB30016)
Method in brief: (§2)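 Clinical strains grown overnight on blood agar, then diluted 1:100 in 1.1× CAMHB and exposed to test compound with imipenem at 1 μg/ml. Incubation was 22–24 h at 35° C; growth was read by absorbance to find the compound concentration restoring imipenem susceptibility.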

[2] = system: Klebsiella pneumoniae expressing VIM-1 (IHMA599644); assay type: cell-based; settings: with imipenem 1 μg/ml, 95% inhibition of bacterial growth; for Klebsiella pneumoniae MITC95: VIM-1 (IHMA599644)
Method in brief: as §2

[3] = system: Serratia marcescens expressing IMP-1 (CL5741); assay type: cell-based; settings: with imipenem 1 μg/ml, 95% inhibition of bacterial growth; for Serratia marcescens MITC95: IMP-1 (CL5741)
Method in brief: as §2

[4] = system: P. aeruginosa expressing IMP-1, efflux+ (MB9798); assay type: cell-based, Pseudomonas aeruginosa; settings: for P. aeruginosa expressing IMP-1, efflux+ (MB9798) MITC95: imipenem at 2 μg/mL, in the presence of a class A, C, D serine β-lactamase inhibitor closely related to relebactam; for Efflux ratio: ratio MITC95 PA_9798/MITC95 PA_9799
Excerpt: (§3) The strain background is Pseudomonas aeruginosa PAO1.

[5] = system: P. aeruginosa expressing IMP-1, efflux− (MB9799); test: Efflux: concentration of MBL inhibitor which restores susceptibility to imipenem; assay type: cell-based, Pseudomonas aeruginosa; settings: imipenem at 2 μg/mL, in the presence of a class A, C, D serine β-lactamase inhibitor closely related to relebactam
Excerpt: as §3

Sequence of IMP-1 (P52699 whole entry, looked up, species assumed): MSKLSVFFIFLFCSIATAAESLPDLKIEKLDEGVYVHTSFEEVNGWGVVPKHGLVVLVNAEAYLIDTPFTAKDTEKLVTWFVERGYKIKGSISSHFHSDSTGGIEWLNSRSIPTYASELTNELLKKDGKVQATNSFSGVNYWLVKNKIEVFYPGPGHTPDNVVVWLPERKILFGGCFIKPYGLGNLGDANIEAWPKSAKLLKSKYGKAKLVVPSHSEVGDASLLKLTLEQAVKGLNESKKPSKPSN

Row | Compound | IC50 (IMP-1) | IC50 (NDM-1) | IC50 (VIM-1) | Escherichia coli MITC95 [1] | Klebsiella pneumoniae MITC95 [2] | Serratia marcescens MITC95 [3] | P. aeruginosa expressing IMP-1, efflux+ (MB9798) MITC95 [4] | Efflux ratio [4] | P. aeruginosa expressing IMP-1, efflux− (MB9799) MITC95 [5] | Escherichia coli expressing NDM-1 (CLB30016) MITC95 [1] | Klebsiella pneumoniae expressing VIM-1 (IHMA599644) MITC95 [2] | Serratia marcescens expressing IMP-1 (CL5741) MITC95 [3]
1 | N#Cc1ccc(-c2ccc(S(=O)(=O)CCN)c(S(N)(=O)=O)c2-c2nnn[nH]2)c2[nH]c(N)nc12 [Example 295, 3-(2-amino-4-cyano-1H-benzo[d]imidazol-7-yl)-6-((2-aminoethyl)sulfonyl)-2-(1H-tetrazol-5-yl)benzenesulfonamide] | 1.22 nM | 0.116 nM | 0.105 nM | 1.563 µM | 3.125 µM | 3.125 µM | 1.563 µM | 1.00 | 1.563 µM | – | – | –
2 | Nc1nc2c(-c3ccc(S(=O)(=O)[C@@H]4CN[C@H](CO)C4)c(S(N)(=O)=O)c3-c3nn[nH]n3)cccc2[nH]1 [Example 350, 3-(2-Amino-1H-benzo[d]imidazol-4-yl)-6-(((3S,5S)-5-(hydroxymethyl)pyrrolidin-3-yl)sulfonyl)-2-(2H-tetrazol-5-yl)benzenesulfonamide] | 0.982 nM | 0.25 nM | 0.674 nM | 0.7813 µM | 3.125 µM | 1.563 µM | 1.563 µM | 1.00 | 1.563 µM | – | – | –
3 | Cn1c(N)nc2c(-c3ccc(S(=O)(=O)C[C@@H](O)CN)c(S(N)(=O)=O)c3-c3nn[nH]n3)cccc21 [Example 363, (S)-3-(2-amino-1-methyl-1H-benzo[d]imidazol-4-yl)-6-((3-amino-2-hydroxypropyl)sulfonyl)-2-(2H-tetrazol-5-yl) benzenesulfonamide] | 0.425 nM | 0.275 nM | 0.356 nM | 0.3906 µM | 1.563 µM | 0.7813 µM | 0.7813 µM | 1.00 | 0.7813 µM | – | – | –
4 | CS(=O)(=O)c1ccc(-c2cccc3cn[nH]c23)c(-c2nn[nH]n2)c1S(N)(=O)=O [Example 191, 3-(1H-indazol-7-yl)-6-(methylsulfonyl)-2-(2H-tetrazol-5-yl)benzenesulfonamide] | 0.21 nM | 0.436 nM | 0.298 nM | – | – | – | 25 µM | 15.99 | 1.563 µM | 3.125 µM | 6.25 µM | 3.125 µM
5 | NCCCS(=O)(=O)c1ccc(-c2cccc3sc(N)nc23)c(-c2nn[nH]n2)c1S(N)(=O)=O [Example 194, 3-(2-aminobenzo[d]thiazol-4-yl)-6-(3-aminopropylsulfonyl)-2-(2H-tetrazol-5-yl)benzenesulfonamide] | 0.154 nM | 0.0908 nM | 0.208 nM | – | – | – | 0.3906 µM | 0.50 | 0.7813 µM | 0.7813 µM | 1.563 µM | 0.7813 µM
6 | NC[C@H](O)CS(=O)(=O)c1ccc(-c2cccc(-c3c[nH]c(N)n3)c2)c(-c2nn[nH]n2)c1S(N)(=O)=O [Example 366, (S)-3'-(2-amino-1H-imidazol-4-yl)-4-((3-amino-2-hydroxypropyl)sulfonyl)-2-(2H-tetrazol-5-yl)-[1,1'-biphenyl]-3-sulfonamide] | 1.81 nM | 0.623 nM | 1.17 nM | 0.7813 µM | 1.563 µM | 1.563 µM | 3.125 µM | 2.00 | 1.563 µM | – | – | –
7 | NC[C@@H](O)CS(=O)(=O)c1ccc(-c2cccc3[nH]cnc23)c(-c2nn[nH]n2)c1S(N)(=O)=O [Example 361, (R)-6-((3-amino-2-hydroxypropyl)sulfonyl)-3-(1H-benzo[d]imidazol-4-yl)-2-(2H-tetrazol-5-yl) benzenesulfonamide] | 0.174 nM | 0.0905 nM | 0.253 nM | 0.7813 µM | 1.563 µM | 0.7813 µM | 0.7813 µM | 1.00 | 0.7813 µM | – | – | –
8 | NS(=O)(=O)c1c(S(=O)(=O)[C@H]2CCNC2)ccc(-c2cccc3nc(C(=O)O)[nH]c23)c1-c1nn[nH]n1 [Example 290, 7-(4-((S)-pyrrolidin-3-ylsulfonyl)-3-sulfamoyl-2-(2H-tetrazol-5-yl)phenyl)-1H-benzo[d]imidazole-2-carboxylic Acid] | 2.96 nM | 0.472 nM | 0.5 nM | 3.125 µM | 3.125 µM | 3.125 µM | 6.25 µM | 4.00 | 1.563 µM | – | – | –
9 | NS(=O)(=O)c1c(S(=O)(=O)C2CNC2)ccc(-c2cccc3[nH]c(=O)[nH]c23)c1-c1nnn[nH]1 [Example 299, 6-(azetidin-3-ylsulfonyl)-3-(2-oxo-2,3-dihydro-1H-benzo[d]imidazol-4-yl)-2-(1H-tetrazol-5-yl) benzenesulfonamide] | 1.45 nM | 0.188 nM | 0.302 nM | 3.125 µM | 6.25 µM | 3.125 µM | 3.125 µM | 1.00 | 3.125 µM | – | – | –
10 | NS(=O)(=O)c1c([S+]([O-])C2CNC2)ccc(-c2ccc(C3CCNCC3)cc2)c1-c1nn[nH]n1 (stereo not drawn) [Example 5, 4-(Azetidin-3-ylsulfinyl)-4′-(piperidin-4-yl)-2-(2H-tetrazol-5-yl)-[1,1′-biphenyl]-3-sulfonamide] | 6.88 nM | 1.98 nM | 2.02 nM | – | – | – | 3.125 µM | 2.00 | 1.563 µM | 3.125 µM | 3.125 µM | 3.125 µM
11 | Cc1ccc(-c2ccc(S(=O)(=O)[C@H]3CCNC3)c(S(N)(=O)=O)c2-c2nn[nH]n2)c2nc(N)sc12 [Example 188, 3-(2-amino-7-methylbenzo[d]thiazol-4-yl)-6-((S)-pyrrolidin-3-ylsulfonyl)-2-(2H-tetrazol-5-yl)benzenesulfonamide] | 0.109 nM | 0.0435 nM | 0.113 nM | – | – | – | 1.563 µM | 2.00 | 0.7813 µM | 1.563 µM | 1.563 µM | 0.7813 µM
